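Exposure lasted 48 hours, with cells grown in 96-well plates and compounds tested at five concentrations. GI50 marks 50% less growth.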 Activity calls are given as the source filed them. Cut-off read from the data, not from the text of the source: active = GI50 up to about 1.1 µM and inactive = higher.
Key:
Test in all cases: inhibition of tumour cell growth, NCI panel, 48 h
786-0 = system: 786-0
A498 = system: A498
A549 = system: A549
ACHN = system: ACHN
CCRF-CEM = system: CCRF-CEM
COLO 205 = system: COLO 205
DU-145 = system: DU-145
EKVX = system: EKVX
HCC 2998 = system: HCC 2998
HCT-116 = system: HCT-116
HCT-15 = system: HCT-15
HL-60 = system: HL-60
HOP-62 = system: HOP-62
HOP-92 = system: HOP-92
HT-29 = system: HT-29
Hs-578T = system: Hs-578T
IGROV-1 = system: IGROV-1
K562 = system: K562
KM12 = system: KM12
LOX IMVI = system: LOX IMVI
M14 = system: M14
MCF7 = system: MCF7
MDA-MB-231 = system: MDA-MB-231
MDA-MB-435 = system: MDA-MB-435
MOLT-4 = system: MOLT-4
Malme-3M = system: Malme-3M
NCI-H226 = system: NCI-H226
NCI-H23 = system: NCI-H23
NCI-H460 = system: NCI-H460
NCI/ADR-RES = system: NCI/ADR-RES
OVCAR-4 = system: OVCAR-4
OVCAR-5 = system: OVCAR-5
OVCAR-8 = system: OVCAR-8
RPMI-8226 = system: RPMI-8226
RXF 393 = system: RXF 393
SF-268 = system: SF-268
SF-295 = system: SF-295
SF-539 = system: SF-539
SK-MEL-28 = system: SK-MEL-28
SK-MEL-5 = system: SK-MEL-5
SK-OV-3 = system: SK-OV-3
SN12C = system: SN12C
SNB-19 = system: SNB-19
SNB-75 = system: SNB-75
SR = system: SR
SW-620 = system: SW-620
T47D = system: T47D
TK-10 = system: TK-10
U-251 = system: U-251
UACC-257 = system: UACC-257
UACC-62 = system: UACC-62
UO-31 = system: UO-31
CAKI-1 = system: CAKI-1
MDA-N = system: MDA-N
NCI-H522 = system: NCI-H522
OVCAR-3 = system: OVCAR-3
PC-3 = system: PC-3
SK-MEL-2 = system: SK-MEL-2

C=CCCCCCCCCC(=O)ON(Cc1ccc(O)c(OC)c1)C(=O)C(F)(F)F
GI50 (786-0): > 100 µM (inactive) | GI50 (A498): 44.1 µM (inactive) | GI50 (A549): > 100 µM (inactive) | GI50 (ACHN): > 100 µM (inactive) | GI50 (CCRF-CEM): 10 µM (inactive) | GI50 (COLO 205): > 100 µM (inactive) | GI50 (DU-145): > 100 µM (inactive) | GI50 (EKVX): > 100 µM (inactive) | GI50 (HCC 2998): > 100 µM (inactive) | GI50 (HCT-116): > 100 µM (inactive) | GI50 (HCT-15): > 100 µM | GI50 (HL-60): 12.4 µM (inactive) | GI50 (HOP-62): > 100 µM (inactive) | GI50 (HOP-92): 34.2 µM (inactive) | GI50 (HT-29): > 100 µM (inactive) | GI50 (Hs-578T): 10.8 µM (inactive) | GI50 (IGROV-1): > 100 µM (inactive) | GI50 (K562): 75 µM (inactive) | GI50 (KM12): 52.5 µM (inactive) | GI50 (LOX IMVI): > 100 µM (inactive) | GI50 (M14): > 100 µM (inactive) | GI50 (MCF7): > 100 µM (inactive) | GI50 (MDA-MB-231): > 100 µM (inactive) | GI50 (MDA-MB-435): > 100 µM (inactive) | GI50 (MOLT-4): 31.3 µM (inactive) | GI50 (Malme-3M): > 100 µM (inactive) | GI50 (NCI-H226): 21.4 µM (inactive) | GI50 (NCI-H23): > 100 µM (inactive) | GI50 (NCI-H460): > 100 µM (inactive) | GI50 (NCI/ADR-RES): > 100 µM (inactive) | GI50 (OVCAR-4): > 100 µM (inactive) | GI50 (OVCAR-5): > 100 µM (inactive) | GI50 (OVCAR-8): > 100 µM (inactive) | GI50 (RPMI-8226): > 100 µM (inactive) | GI50 (RXF 393): > 100 µM (inactive) | GI50 (SF-268): > 100 µM (inactive) | GI50 (SF-295): > 100 µM (inactive) | GI50 (SF-539): > 100 µM (inactive) | GI50 (SK-MEL-28): > 100 µM (inactive) | GI50 (SK-MEL-5): > 100 µM (inactive) | GI50 (SK-OV-3): > 100 µM (inactive) | GI50 (SN12C): > 100 µM (inactive) | GI50 (SNB-19): > 100 µM (inactive) | GI50 (SNB-75): > 100 µM (inactive) | GI50 (SR): 22.9 µM (inactive) | GI50 (SW-620): > 100 µM (inactive) | GI50 (T47D): 72.1 µM (inactive) | GI50 (TK-10): > 100 µM (inactive) | GI50 (U-251): > 100 µM (inactive) | GI50 (UACC-257): > 100 µM (inactive) | GI50 (UACC-62): 49 µM (inactive) | GI50 (UO-31): 10.9 µM (inactive)

C[C@@H](NC(=O)OC1C=CC2(CC1)C(=O)N(C)c1ccccc12)c1cccc2ccccc12 (some centres not stated)
GI50 (786-0): > 25 µM (inactive) | GI50 (A498): > 25 µM (inactive) | GI50 (A549): 12.8 µM (inactive) | GI50 (ACHN): > 25 µM (inactive) | GI50 (CAKI-1): > 25 µM (inactive) | GI50 (CCRF-CEM): 14.7 µM (inactive) | GI50 (COLO 205): 15.1 µM (inactive) | GI50 (DU-145): > 25 µM (inactive) | GI50 (EKVX): 12 µM (inactive) | GI50 (HCC 2998): > 25 µM (inactive) | GI50 (HCT-116): 4.56 µM (inactive) | GI50 (HCT-15): 14.9 µM | GI50 (HL-60): 0.944 µM (active) | GI50 (HOP-62): > 25 µM (inactive) | GI50 (HOP-92): > 25 µM (inactive) | GI50 (HT-29): > 25 µM (inactive) | GI50 (IGROV-1): 4.86 µM (inactive) | GI50 (K562): 15.1 µM (inactive) | GI50 (KM12): 11.6 µM (inactive) | GI50 (LOX IMVI): 19.7 µM (inactive) | GI50 (M14): 14.4 µM (inactive) | GI50 (MCF7): 7.59 µM (inactive) | GI50 (MDA-MB-231): > 25 µM (inactive) | GI50 (MDA-MB-435): 9.57 µM (inactive) | GI50 (MDA-N): 15.5 µM (inactive) | GI50 (MOLT-4): 5.93 µM (inactive) | GI50 (NCI-H226): 21.8 µM (inactive) | GI50 (NCI-H23): 12.2 µM (inactive) | GI50 (NCI-H460): 18.2 µM (inactive) | GI50 (NCI-H522): 5.24 µM (inactive) | GI50 (NCI/ADR-RES): 11.7 µM (inactive) | GI50 (OVCAR-3): > 25 µM (inactive) | GI50 (OVCAR-4): 16.3 µM (inactive) | GI50 (OVCAR-5): > 25 µM (inactive) | GI50 (OVCAR-8): > 25 µM (inactive) | GI50 (PC-3): > 25 µM (inactive) | GI50 (RPMI-8226): 8.79 µM (inactive) | GI50 (SF-268): 7.36 µM (inactive) | GI50 (SF-295): 12.7 µM (inactive) | GI50 (SK-MEL-28): > 25 µM (inactive) | GI50 (SK-MEL-2): > 25 µM (inactive) | GI50 (SK-MEL-5): 5.32 µM (inactive) | GI50 (SK-OV-3): > 25 µM (inactive) | GI50 (SN12C): > 25 µM (inactive) | GI50 (SNB-19): > 25 µM (inactive) | GI50 (SNB-75): 21.5 µM (inactive) | GI50 (SR): 10.2 µM (inactive) | GI50 (SW-620): > 25 µM (inactive) | GI50 (T47D): 7.26 µM (inactive) | GI50 (TK-10): > 25 µM (inactive) | GI50 (U-251): > 25 µM (inactive) | GI50 (UACC-257): 12.2 µM (inactive) | GI50 (UACC-62): > 25 µM (inactive) | GI50 (UO-31): > 25 µM (inactive)

COc1cccc(C2CC(=O)c3cccn32)c1 (configuration not stated)
GI50 (786-0): > 100 µM (inactive) | GI50 (A498): > 100 µM (inactive) | GI50 (A549): 94.6 µM (inactive) | GI50 (ACHN): > 100 µM (inactive) | GI50 (CAKI-1): > 100 µM (inactive) | GI50 (CCRF-CEM): > 100 µM (inactive) | GI50 (COLO 205): > 100 µM (inactive) | GI50 (DU-145): > 100 µM (inactive) | GI50 (EKVX): > 100 µM (inactive) | GI50 (HCC 2998): > 100 µM (inactive) | GI50 (HCT-116): > 100 µM (inactive) | GI50 (HCT-15): > 100 µM | GI50 (HL-60): 32.4 µM (inactive) | GI50 (HOP-62): > 100 µM (inactive) | GI50 (HOP-92): > 100 µM (inactive) | GI50 (HT-29): > 100 µM (inactive) | GI50 (Hs-578T): 23.4 µM (inactive) | GI50 (IGROV-1): > 100 µM (inactive) | GI50 (K562): > 100 µM (inactive) | GI50 (KM12): > 100 µM (inactive) | GI50 (LOX IMVI): > 100 µM (inactive) | GI50 (M14): > 100 µM (inactive) | GI50 (MCF7): > 100 µM (inactive) | GI50 (MDA-MB-231): 82.6 µM (inactive) | GI50 (MDA-MB-435): > 100 µM (inactive) | GI50 (MOLT-4): 71.8 µM (inactive) | GI50 (NCI-H226): > 100 µM (inactive) | GI50 (NCI-H23): > 100 µM (inactive) | GI50 (NCI-H522): > 100 µM (inactive) | GI50 (NCI/ADR-RES): > 100 µM (inactive) | GI50 (OVCAR-3): > 100 µM (inactive) | GI50 (OVCAR-4): > 100 µM (inactive) | GI50 (OVCAR-5): > 100 µM (inactive) | GI50 (OVCAR-8): > 100 µM (inactive) | GI50 (PC-3): 73.3 µM (inactive) | GI50 (RPMI-8226): > 100 µM (inactive) | GI50 (RXF 393): > 100 µM (inactive) | GI50 (SF-268): 69.3 µM (inactive) | GI50 (SF-295): > 100 µM (inactive) | GI50 (SF-539): > 100 µM (inactive) | GI50 (SK-MEL-28): > 100 µM (inactive) | GI50 (SK-MEL-2): > 100 µM (inactive) | GI50 (SK-OV-3): > 100 µM (inactive) | GI50 (SN12C): > 100 µM (inactive) | GI50 (SNB-19): > 100 µM (inactive) | GI50 (SNB-75): > 100 µM (inactive) | GI50 (SR): > 100 µM (inactive) | GI50 (SW-620): > 100 µM (inactive) | GI50 (T47D): 50.2 µM (inactive) | GI50 (TK-10): > 100 µM (inactive) | GI50 (U-251): > 100 µM (inactive) | GI50 (UACC-257): > 100 µM (inactive) | GI50 (UACC-62): > 100 µM (inactive) | GI50 (UO-31): 29.4 µM (inactive)

CC[C@@]1(O)C[C@H](OC2CC(N(C)C)C(OC3CC(O)C(OC4CCC(=O)C(C)O4)C(C)O3)C(C)O2)c2c(cc3c(c2O)C(=O)c2c(O)ccc(O)c2C3=O)[C@H]1C(=O)OC (some centres not stated)
GI50 (A498): < 0.01 µM (active) | GI50 (CCRF-CEM): < 0.0001 µM (active) | GI50 (COLO 205): < 0.0001 µM (active) | GI50 (HL-60): < 0.0001 µM (active) | GI50 (HOP-92): < 0.01 µM (active) | GI50 (IGROV-1): < 0.0001 µM (active) | GI50 (M14): < 0.01 µM (active) | GI50 (MCF7): < 0.0001 µM (active) | GI50 (OVCAR-3): < 0.01 µM (active) | GI50 (OVCAR-5): 0.01 µM (active) | GI50 (SK-MEL-2): < 0.01 µM (active) | GI50 (SNB-19): < 0.0001 µM (active) | GI50 (SNB-75): 0.0181 µM (active) | GI50 (SR): < 0.01 µM (active) | GI50 (U-251): < 0.01 µM (active) | GI50 (UACC-257): 0.0153 µM (active) | GI50 (UACC-62): < 0.01 µM (active)

— ChEMBL document CHEMBL1201862, “PubChem BioAssay data set” (2004)
